IC50 data for 21 molecules are collected here from US12018021B2 (UCB Biopharma SRL, priority 2018, dated 2024).

The target of this experiment is IgE-Tb / sFcεRIα-Y131A-AF488 (Homo sapiens, UniProt P01854, N146Q/N252Q). The experiment can be described thus: IgE-Tb / sFcεRIα-Y131A-AF488 FRET assay (protocol for examples 234 to 501). It is filed as binding. Particulars: examples 234 to 501: compound with IgE-Tb 30 minutes before sFcεRIα-Y131A-AF488, incubated 18 hours at room temperature; read-out: Y131A FRET IC50 range. The gist of the method:
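Compounds (10-point 3-fold series, top usually 10 μM, 2% DMSO) preincubated 30 min with 5 nM IgE-Tb, then 25 nM sFcεRIα-Y131A-AF488 added; 18 h at room temperature in the dark. TR-FRET ratio 520/490 nm after 337 nm excitation, background-subtracted; IC50 by four-parameter logistic fit.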

Where only a bound is given, the exact number is not on record here.

Sequence of IgE-Tb / sFcεRIα-Y131A-AF488 (P01854 whole entry N146Q/N252Q): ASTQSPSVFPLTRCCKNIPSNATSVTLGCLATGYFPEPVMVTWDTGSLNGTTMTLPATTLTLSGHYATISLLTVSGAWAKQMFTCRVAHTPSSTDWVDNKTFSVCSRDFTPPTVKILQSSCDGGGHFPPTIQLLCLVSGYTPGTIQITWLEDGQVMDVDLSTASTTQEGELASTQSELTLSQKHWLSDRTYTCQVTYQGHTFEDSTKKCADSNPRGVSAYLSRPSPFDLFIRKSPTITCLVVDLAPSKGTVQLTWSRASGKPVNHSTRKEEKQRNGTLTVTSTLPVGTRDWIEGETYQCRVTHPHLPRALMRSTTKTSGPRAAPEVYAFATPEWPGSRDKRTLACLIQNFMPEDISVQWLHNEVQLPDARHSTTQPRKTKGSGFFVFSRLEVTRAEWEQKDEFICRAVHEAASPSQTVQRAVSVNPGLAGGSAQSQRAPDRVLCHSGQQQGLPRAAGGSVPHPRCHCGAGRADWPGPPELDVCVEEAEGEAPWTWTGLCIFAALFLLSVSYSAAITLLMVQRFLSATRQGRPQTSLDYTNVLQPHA

A word on the IC50: it is the point on the concentration scale where inhibition reaches its midpoint. As to `COc1cc(Nc2nncn2[C@H]2CCc3sc(NC(=O)C4CC4)c(C(=O)NCC4CC4)c3C2)ccn1` [Example 429, (5S)-2-(cyclopropanecarbonylamino)-N-(cyclopropylmethyl)-5-[3-[(2-methoxy-4-pyridyl)amino]-1,2,4-triazol-4-yl]-4,5,6,7-tetrahydrobenzothiophene-3-carboxamide], the IC50 is less than 1000 nM.
As for `O=C(NCC1CC1)c1c(NC(=O)C2CC2)sc2c1C[C@@H](n1cnnc1Nc1ccc(Cl)nc1)CC2` [Example 430, (5S)-5-[3-[(6-chloro-3-pyridyl)amino]-1,2,4-triazol-4-yl]-2-(cyclopropanecarbonylamino)-N-(cyclopropylmethyl)-4,5,6,7-tetrahydrobenzothiophene-3-carboxamide], the figure is less than 1000 nM.
As for `O=C(NCC1CC1)c1c(NC(=O)C2CC2)sc2c1C[C@@H](n1cnnc1Nc1ccnc(Cl)c1)CC2` [Example 431, (5S)-5-[3-[(2-chloro-4-pyridyl)amino]-1,2,4-triazol-4-yl]-2-(cyclopropanecarbonylamino)-N-(cyclopropylmethyl)-4,5,6,7-tetrahydrobenzothiophene-3-carboxamide], the IC50 is less than 1000 nM.
As for `COc1ccc(Nc2nncn2[C@H]2CCc3sc(NC(=O)C4CC4)c(C(=O)NCC4CC4)c3C2)c(C)n1` [Example 432, (5S)-2-(cyclopropanecarbonylamino)-N-(cyclopropylmethyl)-5-[3-[(6-methoxy-2-methyl-3-pyridyl)amino]-1,2,4-triazol-4-yl]-4,5,6,7-tetrahydrobenzothiophene-3-carboxamide], the figure is less than 1000 nM.
Then `O=C(NCC1CC1)c1c(NC(=O)C2CC2)sc2c1C[C@@H](Nc1nc3cccnc3s1)CC2` [Example 433], with less than 1000 nM; and `Cn1nncc1Nc1nncn1[C@H]1CCc2sc(NC(=O)C3CC3)c(C(=O)NCC3CC3)c2C1` [Example 434, (5S)-2-(cyclopropanecarbonylamino)-N-(cyclopropylmethyl)-5-[3-[(3-methyltriazol-4-yl)amino]-1,2,4-triazol-4-yl]-4,5,6,7-tetrahydrobenzothiophene-3-carboxamide], with less than 1000 nM; and `C[C@H]1C[C@@H]1C(=O)Nc1sc2c(c1C(=O)NC[C@@H]1C[C@@H]1F)C[C@@H](n1cnnc1Nc1cc(C(F)F)nn1C)CC2` [Example 435, (5S)-5-[3-[[5-(difluoromethyl)-2-methylpyrazol-3-yl]amino]-1,2,4-triazol-4-yl]-N-[[(1S,2S)-2-fluorocyclopropyl]methyl]-2-[[(1S,2S)-2-methylcyclopropanecarbonyl]amino]-4,5,6,7-tetrahydro-1-benzothiophene-3-carboxamide], with less than 1000 nM.
As for `C[C@H]1C[C@@H]1C(=O)Nc1sc2c(c1C(=O)NC[C@H]1C[C@@H]1F)C[C@@H](n1cnnc1Nc1cc(C(F)F)nn1C)CC2` [Example 436, (5S)-5-[3-[[5-(difluoromethyl)-2-methylpyrazol-3-yl]amino]-1,2,4-triazol-4-yl]-N-[[(1R,2S)-2-fluorocyclopropyl]methyl]-2-[[(1S,2S)-2-methylcyclopropanecarbonyl]amino]-4,5,6,7-tetrahydro-1-benzothiophene-3-carboxamide], the figure is less than 1000 nM; as for `C[C@H]1C[C@@H]1C(=O)Nc1sc2c(c1C(=O)NC[C@H]1C[C@H](F)C1)C[C@@H](n1cnnc1Nc1cc(C(F)F)nn1C)CC2` [Example 437, (5S)-5-[3-[[5-(difluoromethyl)-2-methylpyrazol-3-yl]amino]-1,2,4-triazol-4-yl]-N-[trans-(3-fluorocyclobutyl)methyl]-2-[[(1S,2S)-2-methylcyclopropanecarbonyl]amino]-4,5,6,7-tetrahydro-1-benzothiophene-3-carboxamide], less than 1000 nM.
Regarding `C[C@H]1C[C@@H]1C(=O)Nc1sc2c(c1C(=O)N[C@H]1C[C@H](F)C1)C[C@@H](n1cnnc1Nc1cc(C(F)F)nn1C)CC2` [Example 438, (5S)-5-[3-[[5-(difluoromethyl)-2-methylpyrazol-3-yl]amino]-1,2,4-triazol-4-yl]-N-(trans-3-fluorocyclobutyl)-2-[[(1S,2S)-2-methylcyclopropanecarbonyl]amino]-4,5,6,7-tetrahydro-1-benzothiophene-3-carboxamide], the IC50 was less than 1000 nM.
For the molecule `C[C@H]1C[C@@H]1C(=O)Nc1sc2c(c1C(=O)NC1CC(F)(F)C1)C[C@@H](n1cnnc1Nc1cc(C(F)F)nn1C)CC2` [Example 439, (5S)—N-(3,3-difluorocyclobutyl)-5-[3-[[5-(difluoromethyl)-2-methylpyrazol-3-yl]amino]-1,2,4-triazol-4-yl]-2-[[(1S,2S)-2-methylcyclopropanecarbonyl]amino]-4,5,6,7-tetrahydro-1-benzothiophene-3-carboxamide], the IC50 was less than 1000 nM.
As for `C[C@H]1C[C@@H]1C(=O)Nc1sc2c(c1C(=O)NCC1CC(F)(F)C1)C[C@@H](n1cnnc1Nc1cc(C(F)F)nn1C)CC2` [Example 440, (5S)—N-[(3,3-difluorocyclobutyl)methyl]-5-[3-[[5-(difluoromethyl)-2-methylpyrazol-3-yl]amino]-1,2,4-triazol-4-yl]-2-[[(1S,2S)-2-methylcyclopropanecarbonyl]amino]-4,5,6,7-tetrahydro-1-benzothiophene-3-carboxamide], the figure is less than 1000 nM.
Then `C[C@H]1C[C@@H]1C(=O)Nc1sc2c(c1C(=O)NCC1CC1(F)F)C[C@@H](n1cnnc1Nc1cc(C(F)F)nn1C)CC2` (stereo partly drawn) [Example 441, (5S)—N-[(2,2-difluorocyclopropyl)methyl]-5-[3-[[5-(difluoromethyl)-2-methylpyrazol-3-yl]amino]-1,2,4-triazol-4-yl]-2-[[(1S,2S)-2-methylcyclopropanecarbonyl]amino]-4,5,6,7-tetrahydro-1-benzothiophene-3-carboxamide], with less than 1000 nM; and `C[C@H]1C[C@@H]1C(=O)Nc1sc2c(c1C(=O)NC[C@H]1C[C@@H](F)C1)C[C@@H](n1cnnc1Nc1cc(C(F)F)nn1C)CC2` [Example 442, (5S)-5-[3-[[5-(difluoromethyl)-2-methylpyrazol-3-yl]amino]-1,2,4-triazol-4-yl]-N-[cis-(3-fluorocyclobutyl)methyl]-2-[[(1S,2S)-2-methylcyclopropanecarbonyl]amino]-4,5,6,7-tetrahydro-1-benzothiophene-3-carboxamide], with less than 1000 nM.
In the case of `C[C@H]1C[C@@H]1C(=O)Nc1sc2c(c1C(=O)NC[C@H]1C[C@H]1F)C[C@@H](n1cnnc1Nc1cc(C(F)F)nn1C)CC2` [Example 443, (5S)-5-[3-[[5-(difluoromethyl)-2-methylpyrazol-3-yl]amino]-1,2,4-triazol-4-yl]-N-[[(1R,2R)-2-fluorocyclopropyl]methyl]-2-[[(1S,2S)-2-methylcyclopropanecarbonyl]amino]-4,5,6,7-tetrahydro-1-benzothiophene-3-carboxamide], the IC50 was less than 1000 nM.
Then `Cn1nc(OC(F)F)cc1Nc1nncn1[C@H]1CCc2sc(NC(=O)C3CC3)c(C(=O)NCC3CC34CC4)c2C1` (stereo partly drawn) [Example 444, (5S)-2-(cyclopropanecarbonylamino)-5-[3-[[5-(difluoromethoxy)-2-methylpyrazol-3-yl]amino]-1,2,4-triazol-4-yl]-N-(spiro[2.2]pentan-2-ylmethyl)-4,5,6,7-tetrahydro-1-benzothiophene-3-carboxamide], with less than 1000 nM.
With `Cn1nc(OC(F)F)cc1Nc1nncn1[C@H]1CCc2sc(NC(=O)C3CC3)c(C(=O)NCC3CCC3)c2C1` [Example 445, (5S)—N-(cyclobutylmethyl)-2-(cyclopropanecarbonylamino)-5-[3-[[5-(difluoromethoxy)-2-methylpyrazol-3-yl]amino]-1,2,4-triazol-4-yl]-4,5,6,7-tetrahydro-1-benzothiophene-3-carboxamide], the IC50 was less than 1000 nM.
On to `Cn1nc(OC(F)F)cc1Nc1nncn1[C@H]1CCc2sc(NC(=O)C3CC3)c(C(=O)NCC3CC(F)(F)C3)c2C1` [Example 446, (5S)-2-(cyclopropanecarbonylamino)-N-[(3,3-difluorocyclobutyl)methyl]-5-[3-[[5-(difluoromethoxy)-2-methylpyrazol-3-yl]amino]-1,2,4-triazol-4-yl]-4,5,6,7-tetrahydro-1-benzothiophene-3-carboxamide], for which the IC50 was less than 1000 nM.
Then `Cn1nc(OC(F)F)cc1Nc1nncn1[C@H]1CCc2sc(NC(=O)C3CC3)c(C(=O)N[C@H]3C[C@@H](F)C3)c2C1` [Example 447, (5S)-2-(cyclopropanecarbonylamino)-5-[3-[[5-(difluoromethoxy)-2-methylpyrazol-3-yl]amino]-1,2,4-triazol-4-yl]-N-(cis-3-fluorocyclobutyl)-4,5,6,7-tetrahydro-1-benzothiophene-3-carboxamide], with less than 1000 nM; and `CC1CC(NC(=O)c2c(NC(=O)C3CC3)sc3c2C[C@@H](n2cnnc2Nc2cc(OC(F)F)nn2C)CC3)C1` (stereo partly drawn) [Example 448, (5S)-2-(cyclopropanecarbonylamino)-5-[3-[[5-(difluoromethoxy)-2-methylpyrazol-3-yl]amino]-1,2,4-triazol-4-yl]-N-(3-methylcyclobutyl)-4,5,6,7-tetrahydro-1-benzothiophene-3-carboxamide], with less than 1000 nM.
Regarding `Cn1nc(OC(F)F)cc1Nc1nncn1[C@H]1CCc2sc(NC(=O)C3CC3)c(C(=O)N[C@H]3C[C@H](F)C3)c2C1` [Example 449, (5S)-2-(cyclopropanecarbonylamino)-5-[3-[[5-(difluoromethoxy)-2-methylpyrazol-3-yl]amino]-1,2,4-triazol-4-yl]-N-(trans-3-fluorocyclobutyl)-4,5,6,7-tetrahydro-1-benzothiophene-3-carboxamide], the IC50 is less than 1000 nM.
